Measurements: patent US20240316038A1, “APOL1 INHIBITORS AND METHODS OF USE” (Maze Therapeutics, Inc., priority 2021, published 2024)

Tests used:
APOL1 G2 [1] = biological target: T1, APOL1 G2 (Homo sapiens, UniProt O14791, DEL388-389); assay: Rescue of HEK293 cell death caused by overexpression of APOL1 (CellTiter-Glo luminescence), HEK293/T-REx APOL1 G2/clone #2; type: cell-based; conditions: reversal of cell death caused by overexpression of APOL1; geometric mean of at least 2 assay runs, † = single assay run (technical duplicate)
T1 construct: expressed in transfected cells; host or cells: HEK293 T-REx clonal lines: HEK T-REx/GCaMP6f/APOL1 G2 K6.3 in A1, HEK293/T-REx APOL1 G2/clone #2 in A2
T1 sequence (O14791 with tags, fused parts or gaps DEL388-389): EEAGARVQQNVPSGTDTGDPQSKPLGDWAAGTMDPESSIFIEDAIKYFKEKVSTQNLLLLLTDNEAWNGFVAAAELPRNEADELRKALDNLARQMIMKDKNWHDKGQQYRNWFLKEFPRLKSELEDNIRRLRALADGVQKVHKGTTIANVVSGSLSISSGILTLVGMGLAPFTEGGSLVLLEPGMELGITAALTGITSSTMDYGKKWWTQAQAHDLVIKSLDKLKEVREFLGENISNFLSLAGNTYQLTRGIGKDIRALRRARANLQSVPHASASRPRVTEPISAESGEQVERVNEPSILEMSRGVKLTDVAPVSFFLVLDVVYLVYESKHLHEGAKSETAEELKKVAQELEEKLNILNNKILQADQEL
Outline: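 HEK293/T-REx APOL1 G2 clone #2 cells, 5,000/well, induced with 6 ng/mL doxycycline and exposed to compound (8-point, 3-fold dilutions, 0.5% DMSO) for 17 h at 37 °C. Viability by CellTiter-Glo luminescence; EC50 for reversal of APOL1-induced death from a four-parameter logistic fit, geometric mean of ≥2 runs.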

APOL1 G2 [2] = biological target: T1, APOL1 G2; assay: APOL1 calcium transport inhibition assay (GCaMP6f calcium influx, FLIPR) in HEK T-REx/GCaMP6f/APOL1 G2 K6.3 cells; type: cell-based; conditions: inhibition of APOL1-mediated calcium influx; geometric mean of at least 2 assay runs, † = single assay run (technical duplicate)
Outline: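 HEK293 cells stably expressing GCaMP6f, APOL1 G2 induced 6 h with doxycycline (20 ng/mL added), then washed into Ca2+-free Tyrode's buffer pH 7.4. Compounds (8-point dose response) preincubated 10 min at room temperature, then Ca2+ injected to 5 mM final and influx read on FLIPR. AC50 reported as geometric mean of runs.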

| Compound | EC50 (APOL1 G2 [1]) | AC50 (APOL1 G2 [2]) |
| --- | --- | --- |
| CC1CC(COc2ccc(S(C)(=O)=O)cc2)CN1CCc1cccc(Cl)c1 (single isomer, unassigned) [Compound 54, rac-cis or trans-1-(3-chlorophenethyl)-2-methyl-4-((4-(methylsulfonyl)phenoxy)methyl)pyrrolidine] | > 30000 nM | < 114 nM |
| CN(c1ccc(OC[C@@H](O)CN2CCC(c3cccc(Cl)c3)C2(C)C)cc1)S(C)(=O)=O (single isomer, unassigned) [Compound 70, N-(4-((R)-(S)-3-((R) or (S)-3-(3-chlorophenyl)-2,2-dimethylpyrrolidin-1-yl)-2-hydroxypropoxy)phe-nyl)-N-methylmethanesulfon-amide] | 303 nM | 295 nM |
| CS(=O)(=O)c1ccc(OCC2CN(CCc3cccc(Cl)c3)CCC2O)cc1 (racemic) [Compound 27, rac-trans or cis-1-(3-chlorophenethyl)-3-((4-(methylsulfonyl)phenoxy)methyl)piperidin-4-ol] | 2130 nM | 1500 nM |
| CS(=O)(=O)c1ccc(OC[C@@H](O)CN[C@H]2C[C@H](c3cccc(Cl)c3)C2)cc1 [Compound 66, (S)-1-((trans-3-(3-chlorophenyl)cyclo-butyl)amino)-3-(4-(methylsulfonyl)phe-noxy)propan-2-ol] | 1380 nM | 468 nM |
| CC1CC(COc2ccc(S(C)(=O)=O)cc2)CN1CCc1cc(Cl)cc(C#N)c1 (single isomer, unassigned) [Compound 204, 3-chloro-5-(2-((2R,4S or 2S,4R or 2S,4S or 2R.4R)-2-methyl-4-((4-(methylsulfonyl)phenoxy)methyl)pyrrolidin-1-yl)ethyl)benzonitrile] | 42.3 nM | 456 nM |
| CS(=O)(=O)c1ccc(OC[C@@H](O)CN2CCCCC2Cc2cccc(Cl)c2)cc1 (single isomer, unassigned) [Compound 63, (2S)-1-((S) or (R)-2-(3-chlorobenzyl)piperidin-1-yl)-3-(4-(methylsulfonyl)phenoxy)propan-2-ol] | 3960 nM | 637 nM |
| COC(CN1CCC[C@@H](COc2ccc(S(C)(=O)=O)cc2)C1)c1cccc(Cl)c1 (single isomer, unassigned) [Compound 25, (R)-1-((R)-2-(3-chlorophenyl)-2-methoxyethyl)-3-((4-(methylsulfonyl)phenoxy)methyl)piperidine or (R)-1-((S)-2-(3-chlorophenyl)-2-methoxyethyl)-3-((4-(methylsulfonyl)phenoxy)methyl)piperidine] | 1010 nM | 469 nM |
| CC(C)(Cc1cccc(Cl)c1)NC[C@@H](O)COc1ccc(S(C)(=O)=O)cc1 [Compound 97, (R)-1-((1-(3-chlorophenyl)-2-methylpropan-2-yl)amino)-3-(4-(methylsulfonyl)phe-noxy)propan-2-ol] | 460 nM | 314 nM |
| C[C@H]1CN(CCc2cccc(Cl)c2)C[C@@H]1COc1ccc(S(=O)(=O)CCCS(C)(=O)=O)cc1 (racemic) [Compound 175, rac-trans-1-[2-(3-chlorophenyl)eth-yl]-3-{[4-(3-methanesulfonylpro-panesulfonyl)phe-noxy]methyl}-4-methylpyrrolidine] | 143 nM | < 72.8 nM |
| COC1CCN(CCc2cccc(Cl)c2)CC1COc1ccc(S(C)(=O)=O)cc1 (single isomer, unassigned) [Compound 36, (3R,4R) or (3S,4S) or (3R,4S) or (3S,4R)-1-(3-chlorophenethyl)-4-methoxy-3-((4-(methylsulfonyl)phenoxy)methyl)piperidine] | > 30000 nM | 14200 nM |
| CC1CC(COc2ccc(S(C)(=O)=O)cc2)CN1CCc1cccc(Cl)c1 (single isomer, unassigned) [Compound 56, (2R,4R) or (2S,4R) or (2S,4S) or (2R,4S)-1-(3-chlorophenethyl)-2-methyl-4-((4-(methylsulfonyl)phenoxy)methyl)pyrrolidine] | 1680 nM | 580 nM |
| CN(c1ccc(OC[C@@H](O)CN2CCC(c3cccc(Cl)c3)C2(C)C)cc1)S(C)(=O)=O (single isomer, unassigned) [Compound 69, N-(4-((S)-3-((S) or (R)-3-(3-chlorophenyl)-2,2-dimethylpyrrolidin-1-yl)-2-hydroxypropoxy)phe-nyl)-N-methylmethanesulfon-amide] | > 30000 nM | 12900 nM |
| CC1CC(COc2ccc(S(C)(=O)=O)cc2)CN1CCc1cccc(C#N)c1 (single isomer, unassigned) [Compound 140, 3-{2-[(2S,4R or 2R,4S or 2R,4R or 2S,4S)-4-[(4-methanesulfon-ylphenoxy)meth-yl]-2-methyl-pyrrolidin-1-yl]-ethyl}benzo-nitrile] | 45.9 nM | 107 nM |
| C[C@@H]1CN(CCc2cc(Cl)cc(C#N)c2)C[C@H]1COc1ccc(S(=O)(=O)CCO)cc1 [Compound 174, 3-chloro-5-{2-[(3S,4S)-3-{[4-(2-hydroxyethanesul-fonyl)phenoxy]meth-yl}-4-methylpyrrolidin-1-yl]ethyl}benzonitrile] | 36.1 nM | 157 nM |
| CS(=O)(=O)c1ccc(CCC2CCCN(CCc3cccc(Cl)c3)C2)cc1 (single isomer, unassigned) [Compound 41, (R) or (S)-1-(3-chlorophenethyl)-3-(4-(methylsulfonyl)phenethyl)piperidine] | 2820 nM | 2110 nM |
| C[C@@H]1CN(CC(O)c2cccc(Cl)c2)C[C@H]1COc1ccc(S(C)(=O)=O)cc1 (stereo partly drawn) [Compound 123, 1-(3-chlorophenyl)-2-((3S,4S)-3-methyl-4-((4-(methylsulfonyl)phenoxy)methyl)pyrrolidin-1-yl)ethan-1-ol] | 300 nM | 376 nM |
| CS(=O)(=O)c1ccc(OC[C@H](O)CNCCc2cccc(Cl)c2)cc1 [Compound 94, (R)-1-((3-chlorophenethyl)a-mino)-3-(4-(methylsulfonyl)phe-noxy)propan-2-ol] | 8370 nM | 1620 nM |
| CN(c1ccc(OCC(C)(O)CNCCc2cccc(Cl)c2)cc1)S(C)(=O)=O (single isomer, unassigned) [Compound 103, (R) or (S)-N-(4-(3-((3-chlorophenethyl)a-mino)-2-hydroxy-2-methylpropxy)phe-nyl)-N-methylmethanesulfon-amide] | > 30000 nM | 10900 nM |
| CN(c1ccc(OC[C@@H](O)CNCCc2cccc(C#N)c2)cc1)S(C)(=O)=O [Compound 99, (S)-N-(4-(3-((3-cyanophenethyl)a-mino)-2-hydroxypropoxy)phe-nyl)-N-methylmethanesulfon-amide] | > 30000 nM | 4140 nM |
| C[C@@H]1CN(CCc2cc(Cl)cc(C#N)c2)C[C@H]1COc1ccc(S(=O)(=O)CCCS(C)(=O)=O)cc1 [Compound 167, 3-chloro-5-{2-[(3S,4S)-3-{[4-(3-methanesulfonylpro-panesulfonyl)phe-noxy]methyl}-4-methylpyrrolidin-1-yl]ethyl}benzonitrile] | 67.2 nM | 314 nM |
| C[C@@H]1CN(CCc2cc(F)cc(Cl)c2)C[C@H]1COc1ccc(S(C)(=O)=O)cc1 [Compound 181, (3S,4S)-1-[2-(3-chloro-5-fluorophenyl)ethyl]-3-[(4-methanesulfonylphenoxy)methyl]-4-methylpyrrolidine] | 325 nM | < 96.1 nM |
| CN(c1ccc(OC[C@H](O)CN2CCC(c3cccc(Cl)c3)C2)cc1)S(C)(=O)=O (single isomer, unassigned) [Compound 78, N-(4-((R)-3-((S) or (R)-3-(3-chlorophenyl)pyrro-lidin-1-yl)-2-hydroxypropoxy)phe-nyl)-N-methylmethanesulfon-amide] | > 30000 nM | 7010 nM |
| C[C@@H]1CN(CCc2cccc(Cl)c2)C[C@H]1COc1ccc(S(C)(=O)=O)cc1 (racemic) [Compound 52, rac-trans-1-(3-chlorophenethyl)-3-methyl-4-((4-(methylsulfonyl)phenoxy)methyl)pyrrolidine] | 124 nM | 79 nM |
| CS(=O)(=O)c1ccc(OC[C@H]2CN(CCc3cccc(Cl)c3)CCN2)cc1 [Compound 14, (R)-1-(3-chlorophenethyl)-3-((4-(methylsulfonyl)phenoxy)methyl)piperazine] | > 30000 nM | 3340 nM |
| CC1CC(COc2ccc(S(C)(=O)=O)cc2)CN1CCc1cc(Cl)cc(C#N)c1 (single isomer, unassigned) [Compound 202, rac-trans or cis-3-chloro-5-{2-[4-[(4-methanesulfonylphenoxy)methyl]-2-methylpyrrolidin-1-yl]ethyl}benzonitrile] | 89 nM | 860 nM |
